No end group written: not given here.
Key:
[1] = test system: hepatitis B virus (HBV) ayw strain; assay: HBV experimental assay system (HepG2-2.2.15, TaqMan PCR of HBV DNA); type: cell-based; settings: 10 micrograms per ml; six days; HBV DNA vs virus control
murine spleen cells = assay: Th1/Th2 cytokine profiling assay (Ovalbumin-restimulated spleen cells, CBA kit); type: cell-based, Balb/c mice; settings: 10 micrograms per ml; 72 hours
Excerpt: The Balb/c mice (originated in 1923, it is a popular strain and is used in many different research disciplines. Also classified as an inbred from the production of 20 or more successive brother-sister matings, the Balb/c mouse is albino and small in size) were immunized on Days 1, 15, and 29 with Ovalbumin (Ovalbumin is the main protein found in egg white, commonly used to stimulate an immunological reaction in test animals) in PBS (5 micrograms/injection). On day 50, spleens of the mice were harvested (3 weeks after last boost with Ovalbumin). […] Thereafter, additional Ovalbumin was added to the cells at 10 micrograms/ml for in vitro restimulation of the cells. 72 hours later, cell supernatants were harvested and assayed using the Becton Dickinson Mouse Th1/Th2 Cytokine CBA Kit.

[2] = test system: Primary Human endothelial cells (HUVEC); assay: Endothelial cell migration assay; type: cell-based; settings: 10 micrograms per ml; 22 hours
HUVEC = assay: Endothelial tube formation assay; type: cell-based, human; settings: 10 micrograms per ml; 20 hours
Description: The endothelial tube formation assay is based on the ability of endothelial cells to form three-dimensional capillary-like tubular structures when cultured on a gel of basement membrane extract. The endothelial tube formation assay represents a powerful model for studying inhibition and induction of angiogenesis. Pre-labeled HUVEC with Calcein AM were seeded in a 96-well culture plate coated with extracellular metrix (Chemicon international Cat. ECM625) and treated with test peptides—10 micrograms per ml—in full growth medium. Positive control wes vehicle only. The endothelial cells were allowed to form tubes foe 20 hours and were then examined under an inverted fluorescent microscope. Duplicate wells for each treatment were photographed and quantitatevily analyzed for an average tubule length using image analysis software ImageProPlus. Raw data were expressed as average tubule lengths in pixels±standard deviation. Statistic p values were computed using the Student's t-test.

HCMV strain AD169 = assay: HCMV plaque formation assay in MRC-5 cells; settings: 10 micrograms per ml, 7-10 days
RAW 264.7 cells = assay: Phagocytosis assay (Fluorescein-labeled Escherichia coli, flow cytometry); settings: 10 micrograms per ml; 30 min preincubation, 60 min ingestion

## Val-Pro-Leu-Pro-Ala-Gly-Gly-Gly-Thr-Val-Leu-Thr-Lys-Met-Tyr-Pro-Arg-Gly-Asn-His-Trp-Ala-Val-Gly-His-Leu-Met-NH2 (VPLPAGGGTVLTKMYPRGNHWAVGHLM-NH2) [Peptide 2]
[1]
  inhibition of HBV replication on tested liver cells: 30.6%
Murine spleen cells
  change of the production of IFN-γ: did not significantly change
  change of the production of IL-2: did not significantly change
  change of the production of IL-4: did not significantly change
  change of the production of TNF-alpha: did not significantly change
  decrease of the production of IL-5: 34.0%
  induction of the production of IL-2: 67.3%
[2]
  inhibition of the migration of human endothelial cells: 26%
HUVEC
  inhibition of the tube formation of human endothelial cells: do not inhibit
HCMV strain AD169
  inhibition of HCMV plaque formation as compared to the virus control: 4.0%
RAW 264.7 cells
  induction of phagocytosis as compared to control: 42.9%
